Results on 1 compound are retold here after patent US12012415B2, “Compositions and methods for the diagnosis, treatment and prevention of neoplastic and neurological disorders” (AscentGene, Inc., priority 2018, dated 2024).

Data set [1] has as its system Rat glioblastoma cell lines C6. Put plainly: Cell growth of glioblastoma cell line C6. The format is cell-based. Particulars: cell growth rate from number of live cells. The method, then: Rat glioblastoma cell lines C6 (A) and human non-small cell lung cancer cell line H841 (B) were grown in the proper medium and treated with different concentration of drug candidate AG-1031 (P) and AG-1503 (#3). Cell growth rate was calculated based on the number of live cells as compared to concentration in M of selected small molecules of the invention (see FIGS. 6A and 6B).

Data set [2] has as its system U251 cells. As to the kind of experiment: Cell viability, combination with TMZ in U251 cells. It is filed as cell-based, human. The method, then: Human glioma cell lines of U251, SF539, SF295 were obtained from NCI/DTP and U87 was obtained from ATCC. U251, SF539, and SF295 cells were grown in RPMI (Gibco) medium; U87 cells were grown in EMEM medium (ATCC), all the cells culture media containing 10% FBS and 100 unit/ml of Penicillin-Streptomycin, and cells were incubated in a 37 °C/5% CO2 humidified hood. One day before chemical compounds treatment, four kinds of cells U251, SF539, SF295, and U87 were seeded in 96-well plates at 10,000 cells/well (100 μl) with triplicate. The culture medium was removed and cells were treated with a series different concentration of AG1601/in correspond fresh media. Following an additional incubation of 48 hours at 37° C./5% CO2, cells proliferation assay was performed with Cell Counting Kit-8 (Dojindo Laboratories, #CK04), added 10 μl of reagent to the cells in each well after replacing with 100 μl of fresh media, mix well, following an additional 2 to 3 hours incubation at 37° C./5% CO2, read wavelengths of OD450 nm in a 96-well plate reader (Victor 2, 1420 Multilabel counter), data analysis were performed with Excel and it is platted as relative mean OD450 nm+/−standard error of the mean.
Cells were treated with indicated content of AG-1601 for 48 hours, then followed by performance of cell viability assays. […]

Data set [3] concerns SF295 xenograft tumor. Put plainly: SF295 GBM xenograft mice model. It is filed as in vivo. Particulars: 150 μg/mice IP every other day, 28 days. As for the experimental part: Female SHO mice (Crl:SHO-Prkdescid Hr/6-8 weeks) were purchased from Charles River. Human glioblastoma cell line SF295 cells were injected subcutaneously on the right flank of 8 week female SHO mice (3×10^6/per mice), tumor appears around one week (day 7) post inoculation. When the tumor size reaches the volume of 100 mm^3, total 12 mice were randomly divided to two groups (Treatment & Vehicle). 100 μl of 1.5 μg/μl of AG-1601 (total 150 μg/mice) was injected via IP to each mouse in the Treatment Group every other day for total 28 days; the same volume of H2O was injected to the mouse in the Vehicle Group. Tumor size measurement was evaluated using the digital calipers and tumor size was calculated using the following formula [mm^3=((L+W)/4)×((L+W)/4)×((L+W)/4)×4/3×3.14159], data are platted as relative mean tumor volume+/−standard error of the mean.

The subject of data set [4] is C6 glioma. As to the kind of experiment: C6 intracranial glioma rat model. The format is in vivo, rats. As for the experimental part:
SD male rate were intracranially injected with DMEM medium in 10 μl (sham and small plus AG-1601), and C6 cell at 1×10^6 in 10 μl (glioma and glioma plus AG-1601). C6 cells, a type of murine glioma cell lines, were injected into the right striatum in rats to induce glioma formation. C6 cells were cultured in DMEM containing 10% FBS. C6 cells were suspended in DMEM to implant in rats. Rats injected DMEM containing 10% FBS were grouped as Sham. Tumor formation continued for 7 days, followed by AG1601 was intravenous injected once a day for 6 days. Physical findings included: body weight/2d; effects on synaptic plasticity; electrophysiological tests of LTP and CA3-CA1; mechanism of the study (BDNF/TrkB signaling pathway); Western blot; Synaptic plasticity: BDNF/TrkB/PI3K/Akt/NMDA/PSD95/SYP; Tumor suppression: BDNF/TrkB/RAS/ERK/Bcl-2/Bax; Histology and immunohistochemical analysis; HE staining and immunohistochemistry staining; characterization of brain tumor (localization, size, and regions).

`C=CC1=C(C)c2cc3[nH]c(cc4nc(cc5[nH]c(cc1n2)c(C)c5C=C)C(C)=C4CCC(=O)O)c(CCC(=O)NCCCc1ccccc1)c3C` [AG-1601, 3-(2,8,13,18-tetramethyl-3-(3-oxo-3-((3-phenylpropyl)amino)propyl)-12,17-divinylporphyrin-7-yl)propanoic acid]: in data set [1], the “inhibition of growth of glioma cell line C6” value is “even better inhibitory activity on growth of glioma cells compared to AG-1503”. Besides, the “potentiation of the effect of TMZ” value in data set [2] is recorded as “potentiates the effect of TMZ”. In addition, the “efficacy on SF295 xenograft tumor” value in data set [3] is recorded as “shows efficacy”. For the same compound, the body weights result is “significant difference was found between them” in data set [4] (Glioma vs Glioma+AG1601, 2 weeks) and “without significant difference” in data set [4] (Sham vs Sham+AG1601, 2 weeks). For the same compound, the tumor volumes result in data set [4] (Glioma+AG1601 vs Glioma group) was “reduced”. Besides, in data set [4] (Glioma+AG1601 vs Glioma group), the tumor weights entry was “reduced”. Further, the survival time result in data set [4] (glioma rats treated vs without treatment) is given as “longer”. For the same compound, the glioma growth entry in data set [4] (i.v. once a day for 6 days) is on record as “could suppress glioma growth”. In data set [4] (rat model), the “efficacy on C6 xenograft tumor” value was “shows efficacy”.
